Results: paper PMC8162438, “Cancer cell-selective modulation of mitochondrial respiration and metabolism by potent organogold(III) dithiocarbamates” (Chemical Science, 2020)
pIC50: −log10 of the molar value.

Test system: MRC5
Assay: MTT cell viability, human fetal lung fibroblasts MRC5
Assay type: cell-based
Conditions: 72 h
Method: All the gold(III) dithiocarbamate compounds display remarkable cell killing potential in a panel of breast, ovarian, lung and leukemia cancers. Preliminary studies focused on different cancer cell lines (MDA-MB-231, MDA-MB-175, and A2780), an immortalized normal retinal epithelial cell line (RPE-NEO) and human fetal lung fibroblasts (MRC5) (Fig. S111–S129 ^†). These adherent cells were exposed to a serial-diluted concentration of all ten compounds for 72 h. The cells were subsequently treated with 3-(4,5-dimethylthiazol-2-yl)-2,5-diphenyltetrazolium bromide (MTT) solutions, dissolved with DMSO and the absorbance at 570 nm was measured with a plate-reader.
In Vitro Biological Assays
Cell Culture. All cell lines were purchased from ATCC and routinely grown in a humidified incubator at 37 °C with 5-10% CO 2. MDA-MB-231, MDA-MB-175, MRC5, RPE-NEO, H460, and K562 were grown in DMEM supplemented with 10% FBS, 1% amphotericin and 1% penicillin/streptomycin. A2780 cells were grown in RPMI supplemented with 10% FBS, 1% amphotericin, and 1% penicillin/streptomycin, and 4 mM glutamine. All supplements along with PBS and trypsin-EDTA were purchased from Corning Inc. and used as is. […]
Cell Viability of 1a-1e and 2a-2e (Adherent Cell Lines). The cell viability of all 10 complexes were performed in MDA-MB-231, MDA-MB-175, A2780, RPE-NEO and MRC5. The cell viability of compound 2a was also determined in H460. Cells were grown to confluency and trypsin was added to detach and harvest cells. The cells were washed with 2 mL of PBS and suspended in 10 mL of the appropriate media. The cells were centrifuged at 2000 rpm for 5 minutes and the pellet washed with 2 mL of PBS then suspended in 5 mL of the appropriate […]
media. The cells were plated at a density of 2,000 cells/well in a 96-well clear bottom plate and allowed to adhere overnight at 37 °C with 5-10% CO 2. The compounds were prepared as a stock in DMSO and used fresh. The compounds were added at seven concentrations with a 3x serial dilution starting at 50 µM for the highest concentration and incubated at 37 °C for 72 h with 5-10% CO 2. The medium was removed and a solution of MTT (100 µL, prepared by dissolving MTT at 5 mg/mL and diluting by 10x with DMEM) was added to each well and incubated for 4 h at 37 ° C with 5-10% CO 2. The dye was removed from each well and 100 µL of DMSO was added to induce cell lysis. The plates were read using a Genios plate reader (λ = 570 nm). The experiment was performed in triplicate and data are plotted as the mean ± s.e.m. (n = 3). Data for 2a can be found in the main text (Figure 6) and the other complexes can be seen in the supplementary figures (S111 – S129). […]
Cells were grown to confluency and centrifuged at 2000 rpm for 5 minutes to collect the cell pellet. The cells were washed with 5 mL of PBS, suspended in 5 mL of DMEM, and centrifuged again at 2000 rpm for 5 minutes to collect the pellet. The pellet was then washed with 2 mL of PBS and suspended in 5 mL of DMEM. The cells were plated at density of 2,000 cells/well in a 96-well white bottom plate. 2a was prepared as a stock solution […]
10% CO 2. The cells were removed from the incubator and allowed to rest at room temperature for 30 minutes. To each designated well was then added 20 µL of CellTiter-Glo solution and orbitally shaken for 5 minutes and the luminescence (1000 ms integration and 150 ms gain) acquired on a Genios plate reader. The experiment was performed in triplicate. Data are plotted […]
Apoptosis Analysis. […]
A stock of 2a was prepared fresh in DMSO and added to the desired well at a concentration of 1 µM with a final volume of 2.5 mL and incubated for 4 h at 37 °C. A stock of H2O2 was prepared in PBS and the cells treated at a final concentration of 2 mM for 1 hour as a […]

Structure (SMILES)	pIC50
C[N+](C)=C1[S][Au-2]2([S]1)[c]1ccccc1C(=O)c1cccc[n+]12.F[P-](F)(F)(F)(F)F (centres unmarked) [1a]	< 4.30
C[N+](C)=C1[S][Au-2]2([S]1)[c]1ccccc1Cc1cccc[n+]12.F[P-](F)(F)(F)(F)F (centres unmarked) [2a]	< 4.30
